Measurements taken from patent US10118916B2, “Modulators of cystic fibrosis transmembrane conductance regulator protein” (AbbVie S.à.r.l., priority 2016, dated 2018).

Experiments:
[1] = target: T1, F508delCFTR (Homo sapiens, UniProt P13569, DEL508-508); experiment: Cell Surface Expression-Horse Radish Peroxidase (CSE-HRP) assay; format: cell-based; conditions: CFBE41o-F508delCFTR-HRP cells; for EC50: F508delCFTR cell surface expression, luminescence, 18-24 hours at 33° C., highest concentration 20 μM; for Maximum % activity: maximum at any tested concentration, normalized to on-plate positive control (3 μM)
T1 construct: expressed in transfected cells; host or cells: CFBE41o- (human lung derived epithelial cell line), doxycycline-inducible
T1 sequence (P13569 with tags, fused parts or gaps DEL508-508): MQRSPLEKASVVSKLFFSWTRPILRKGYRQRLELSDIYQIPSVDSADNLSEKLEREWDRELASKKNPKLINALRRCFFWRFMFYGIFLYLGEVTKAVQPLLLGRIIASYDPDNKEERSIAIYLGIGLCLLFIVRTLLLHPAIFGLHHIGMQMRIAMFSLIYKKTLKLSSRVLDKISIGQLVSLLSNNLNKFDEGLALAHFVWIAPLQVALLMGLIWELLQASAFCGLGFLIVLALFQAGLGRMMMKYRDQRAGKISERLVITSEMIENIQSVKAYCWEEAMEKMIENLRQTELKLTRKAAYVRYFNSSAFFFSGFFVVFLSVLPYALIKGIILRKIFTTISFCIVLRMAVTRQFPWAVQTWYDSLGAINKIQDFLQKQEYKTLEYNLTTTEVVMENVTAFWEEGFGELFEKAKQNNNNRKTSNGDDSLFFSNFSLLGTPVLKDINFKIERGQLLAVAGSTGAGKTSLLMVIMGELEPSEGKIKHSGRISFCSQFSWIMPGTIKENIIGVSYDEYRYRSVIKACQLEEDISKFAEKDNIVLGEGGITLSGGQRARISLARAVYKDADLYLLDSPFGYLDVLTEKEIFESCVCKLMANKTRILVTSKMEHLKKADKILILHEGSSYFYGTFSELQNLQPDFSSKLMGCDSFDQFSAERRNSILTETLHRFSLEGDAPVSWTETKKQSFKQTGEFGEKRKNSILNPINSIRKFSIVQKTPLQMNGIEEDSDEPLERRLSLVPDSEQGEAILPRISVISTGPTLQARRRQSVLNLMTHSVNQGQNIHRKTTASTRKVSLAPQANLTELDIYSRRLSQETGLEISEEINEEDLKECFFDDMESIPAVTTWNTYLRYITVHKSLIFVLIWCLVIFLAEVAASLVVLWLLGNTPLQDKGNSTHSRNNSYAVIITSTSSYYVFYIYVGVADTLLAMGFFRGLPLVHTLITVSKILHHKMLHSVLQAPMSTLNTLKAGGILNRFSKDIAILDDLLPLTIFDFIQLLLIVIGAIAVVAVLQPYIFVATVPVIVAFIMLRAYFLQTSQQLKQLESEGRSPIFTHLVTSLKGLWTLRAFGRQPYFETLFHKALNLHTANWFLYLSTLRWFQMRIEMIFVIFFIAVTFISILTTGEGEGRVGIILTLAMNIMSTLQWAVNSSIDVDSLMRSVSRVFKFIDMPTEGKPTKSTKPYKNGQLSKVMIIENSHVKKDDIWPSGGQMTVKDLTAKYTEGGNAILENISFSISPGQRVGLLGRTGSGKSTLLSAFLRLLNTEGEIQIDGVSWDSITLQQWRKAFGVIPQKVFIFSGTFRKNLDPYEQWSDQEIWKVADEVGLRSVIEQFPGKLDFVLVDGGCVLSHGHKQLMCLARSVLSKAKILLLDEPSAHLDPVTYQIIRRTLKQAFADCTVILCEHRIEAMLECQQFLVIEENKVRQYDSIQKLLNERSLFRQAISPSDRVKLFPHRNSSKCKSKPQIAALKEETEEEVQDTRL
In short: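 CFBE41o- cells expressing doxycycline-induced (0.5 μg/mL, 72 h at 37 °C) F508delCFTR with HRP in the fourth extracellular loop; compounds 8 points, 3-fold from 20 μM, 18-24 h at 33 °C. Surface HRP measured by luminol luminescence, normalised to DMSO and 3 μM reference corrector; EC50 from variable-slope sigmoidal fit of triplicate plates.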

[2] = target: T2, F508del/F508del CFTR (Homo sapiens, UniProt P13569, DEL508-508); experiment: Transepithelial Clamp Circuit (TECC-24) conductance assay on primary human bronchial epithelial cells (hBE-TECC); format: cell-based; conditions: for EC50: equivalent short circuit current, 18-24 hours at 37° C., with control potentiator; for Maximum % activity: relative to positive control (3 μM) coupled with control potentiator
T2 construct: cells isolated from CF patients with the homozygous mutation; endogenous in cells; host or cells: primary human bronchial epithelial (hBE) cells from F508del/F508del CF patients
T2 sequence (P13569 with tags, fused parts or gaps DEL508-508): as above
Description: Transepithelial Clamp Circuit on Human Bronchial Epithelial Cells Conductance Assay:
A cell based assay using the primary human bronchial epithelial cells (hBE) was used as a secondary assay to test novel F508delCFTR correctors for their activity on primary hBE cells with F508del/F508del CFTR mutation. The assay used a TECC-24 (Transepithelial Clamp Circuit for 24 wells) instrument that measures the functionality of the mutated channel by measuring the equivalent short circuit current (Ieq) generated by the polarized epithelial cells. The instrument works by measuring the transepithelial potential difference (Vt) and transepithelial resistance (Rt) in an open circuit format, and the Ieq is calculated by using Ohms law (Ieq=Vt/Rt). The assay was run in a 24-well format and all 24-wells were measured at the same time point giving a higher throughput for this assay.
Primary human bronchial epithelial (hBE) cells from F508del/F508delCFTR patients were expanded from 1×10^6 to 250×10^6 cells (Neuberger T, Burton B, Clark H and VanGoor F; Cystic Fibrosis, Methods in Mole Biol 741; eds. Amaral M D and Kunzelmann K, 2011). For this purpose, cells isolated from CF patients with the homozygous mutation were seeded onto 24 well Corning (Cat #3378) filter plates that were coated with 3T3 conditioned media and grown at an air-liquid interface for 35 days using an Ultroser® G supplemented differentiation media. Apical surface mucus was removed 72 hours before the experiment using 3 mM dithiothreitol (DTT) in phosphate buffered saline (PBS). The apical surface was washed again 24 hours before the experiment using PBS. The cells were incubated with the desired dose response of the corrector compounds 18-24 hours at 37° C., 5% CO2. The corrector compounds are only added on the basolateral side of the epithelial cells.
On the day of measuring the corrector activity on the TECC, the cells were switched into a bicarbonate and serum free F-12 Coon's medium and allowed to equilibrate for 30 minutes in a CO2 free incubator. At the time of measurement, the apical and basolateral sides of the filter were bathed with the F-12 Coon's modification media (with 20 mM 4-(2-hydroxyethyl)-1-piperazineethanesulfonic acid (HEPES), pH 7.4 (using 1 M tris(hydroxymethyl)aminomethane (Tris)), and the measurements were made at 36.5° C. Transepithelial voltage (Vt) and transepithelial resistance (Rt) were measured using a 24 channel transepithelial current clamp (TECC-24). Current responses to the sequential addition of benzamil (apical 6 μM addition; for inhibiting epithelial ENaC channel), forskolin (apical and basolateral 10 μM addition; for activating the CFTR channel), control potentiator (N-(3-carbamoyl-5,5,7,7-tetramethyl-4,7-dihydro-5H-thieno[2,3-c]pyran-2-yl)-1H-pyrazole-5-carboxamide; apical and basolateral 1 μM addition; for potentiating the CFTR channel) and bumetanide (basolateral 20 μM addition; for inhibiting the Na:2Cl:K co-transporter, an indirect measure of inhibiting the Cl— secretion driven by CFTR channel) were measured.
All plates contained negative controls (dimethyl sulfoxide, DMSO) which coupled with the control potentiator (N-(3-carbamoyl-5,5,7,7-tetramethyl-4,7-dihydro-5H-thieno[2,3-c]pyran-2-yl)-1H-pyrazole-5-carboxamide) sets the null response and positive controls (3 μM of 3-[(2R,4R)-4-({[1-(2,2-difluoro-1,3-benzodioxol-5-yl)cyclopropyl]carbonyl}amino)-7-methoxy-3,4-dihydro-2H-chromen-2-yl]benzoic acid) coupled with the control potentiator sets the 100% response to measure the correction of the mutated CFTR channel. The maximum percent activity is reported relative to the positive control value.
The % activity measured at each of the 6 test concentrations of the test compound was normalized to the on-plate positive control using the following formula: % activity=[(test compound response−DMSO response)/(positive control response−DMSO response)]*100 […]

SMILES	EC50 [1]	Maximum % activity [1]	EC50 [2]	Maximum % activity [2]
COc1ccc2c(c1)O[C@@H](c1cccc(C(=O)O)c1)C[C@H]2NC(=O)[C@@]1(C)CCc2cc(C)ccc21 (single isomer, unassigned) [Example 8]	100 nM	91.3%	24 nM	85.6%
O=C(N[C@@H]1C[C@H]([C@H]2CC[C@@H](C(=O)O)CC2)Oc2cc(OC(F)F)ccc21)C1(c2ccc3c(c2)OC(F)(F)O3)CC1 [Example 15A, cis-4-[(2R,4R)-4-{[1-(2,2-difluoro-2H-1,3-benzodioxol-5-yl)cyclopropane-1-carbonyl]amino}-7-(difluoromethoxy)-3,4-dihydro-2H-1-benzopyran-2-yl]cyclohexane-1-carboxylic acid]	530 nM	94.7%	573 nM	92.0%
O=C(N[C@@H]1C[C@H]([C@H]2CC[C@H](C(=O)O)CC2)Oc2cc(OC(F)(F)F)ccc21)C1(c2ccc3c(c2)OC(F)(F)O3)CC1 [Example 13, trans-4-[(2R,4R)-4-{[1-(2,2-difluoro-2H-1,3-benzodioxol-5-yl)cyclopropane-1-carbonyl]amino}-7-(trifluoromethoxy)-3,4-dihydro-2H-1-benzopyran-2-yl]cyclohexane-1-carboxylic acid]	30 nM	124.0%	4 nM	117.5%
COc1ccc2c(c1)O[C@@H]([C@H]1CC[C@H](C(=O)O)CC1)C[C@H]2NC(=O)C1(c2ccc3c(c2)OC(F)(F)O3)CC1 [Example 11, trans-4-[(2R,4R)-4-{[1-(2,2-difluoro-2H-1,3-benzodioxol-5-yl)cyclopropane-1-carbonyl]amino}-7-methoxy-3,4-dihydro-2H-1-benzopyran-2-yl]cyclohexane-1-carboxylic acid]	310 nM	124.5%	21 nM	104.3%
O=C(N[C@@H]1C[C@H]([C@H]2CC[C@H](C(=O)O)CC2)Oc2cc(OC(F)F)ccc21)C1(c2ccc3c(c2)OC(F)(F)O3)CC1 [Example 15B, trans-4-[(2R,4R)-4-{[1-(2,2-difluoro-2H-1,3-benzodioxol-5-yl)cyclopropane-1-carbonyl]amino}-7-(difluoromethoxy)-3,4-dihydro-2H-1-benzopyran-2-yl]cyclohexane-1-carboxylic acid]	110 nM	125.5%	30 nM	109.6%
COc1cccc2c1[C@](C)(C(=O)N[C@@H]1C[C@H](c3cccc(C(=O)O)c3)Oc3ccccc31)CC2 [Example 50, 3-[(2R,4R)-4-{[(1R)-7-methoxy-1-methyl-2,3-dihydro-1H-indene-1-carbonyl]amino}-3,4-dihydro-2H-1-benzopyran-2-yl]benzoic acid]	> 20000 nM	4.9%		
COc1ccc2c(c1)O[C@@H](c1ccc(C(=O)O)cc1)C[C@H]2NC(=O)C1(c2ccccc2)CCCC1 [Example 97, 4-{(2R,4R)-7-methoxy-4-[(1-phenylcyclopentane-1-carbonyl)amino]-3,4-dihydro-2H-1-benzopyran-2-yl}benzoic acid]	> 20000 nM	2.5%		
COc1ccc2c(c1)O[C@@H](c1ccc(C(=O)O)cc1)C[C@H]2NC(=O)C1(c2ccc(F)c(F)c2)CCC1 [Example 81, 4-[(2R,4R)-4-{[1-(3,4-difluorophenyl)cyclobutane-1-carbonyl]amino}-7-methoxy-3,4-dihydro-2H-1-benzopyran-2-yl]benzoic acid]	1880 nM	32.0%		
COc1ccc2c(c1)O[C@@H](c1ccc(C(=O)O)cc1)C[C@H]2NC(=O)C1(c2ccccc2)CCC(F)(F)C1 (stereo partly drawn) [Example 80, 4-{(2R,4R)-4-[(3,3-difluoro-1-phenylcyclopentane-1-carbonyl)amino]-7-methoxy-3,4-dihydro-2H-1-benzopyran-2-yl}benzoic acid]	> 20000 nM	−0.2%		
COc1ccc(C(C)(C)C(=O)N[C@H]2C[C@H](c3cccc(C(=O)O)c3)Oc3cc(OC)ccc32)cc1 [Example 24, 3-{(2R,4S)-7-methoxy-4-[2-(4-methoxyphenyl)-2-methylpropanamido]-3,4-dihydro-2H-1-benzopyran-2-yl}benzoic acid]	1160 nM	38.3%		
COc1ccc2c(c1)O[C@@H](c1ccc(C(=O)O)cc1)C[C@H]2NC(=O)C1(c2cccc(Br)c2)CC1 [Example 88, 4-[(2R,4R)-4-{[1-(3-bromophenyl)cyclopropane-1-carbonyl]amino}-7-methoxy-3,4-dihydro-2H-1-benzopyran-2-yl]benzoic acid]	640 nM	44.0%		
COc1ccc2c(c1)O[C@@H](c1ccc(C(=O)O)cc1)C[C@H]2NC(=O)C1(c2ccc(Br)cc2)CC1 [Example 4, 4-[(2R,4R)-4-{[1-(4-bromophenyl)cyclopropane-1-carbonyl]amino}-7-methoxy-3,4-dihydro-2H-1-benzopyran-2-yl]benzoic acid]	260 nM	94.2%		
COc1ccc2c(c1)O[C@@H](c1cccc(C(=O)O)c1)C[C@H]2NC(=O)C(C)(C)Oc1ccc(Cl)cc1 [Example 45, 3-{(2R,4R)-4-[2-(4-chlorophenoxy)-2-methylpropanamido]-7-methoxy-3,4-dihydro-2H-1-benzopyran-2-yl}benzoic acid]	> 20000 nM	15.3%		
COc1ccc2c(c1)O[C@@H](c1ccc(C(=O)O)cc1)C[C@H]2NC(=O)C1(c2ccccc2)CC1 [Example 75, 4-{(2R,4R)-7-methoxy-4-[(1-phenylcyclopropane-1-carbonyl)amino]-3,4-dihydro-2H-1-benzopyran-2-yl}benzoic acid]	950 nM	37.9%		
